Measurements: patent US9199922B2, “Dihalophenoxyphenylamidines and use thereof as fungicides” (BAYER INTELLECTUAL PROPERTY GMBH, priority 2007, dated 2015)
Like-named read-outs stand apart in the source and are kept apart here.

Assay: logP determination (acidic / neutral)
Type: physicochemical
[1] = pH 2.3, read-out: log P (pH 2.3)

SMILES	logP [1]	log P (pH 2.3) (pH 2.3)	logP acidic	logP neutral (neutral)	logP (neutral, read-out: logP neutral)
Cc1cc(Oc2ccc(Cl)c(Cl)c2)c(C)cc1N [4-(3,4-Dichlorophenoxy)-2,5-dimethylaniline]	3.51				
Cc1cc([N+](=O)[O-])c(C)cc1Oc1ccc(Cl)c(Cl)c1 [4-(3,4-Dichlorophenoxy)-2,5-dimethylnitrobenzene]		5.19			
CCN(C)C=Nc1cc(C)c(Oc2ccc(F)c(F)c2)cc1C [Compound 2]			2.37	6.2	
CCN(C)C=Nc1cc(C)c(Oc2cc(F)cc(Br)c2)cc1C [Compound 3]			2.29	5.8	
CCN(C)C=Nc1cc(C)c(Oc2cc(Br)cc(Br)c2)cc1C [Compound 4]			2.5	6	
Cc1cc(Oc2cc(Br)cc(Br)c2)c(C)cc1N=CN(C)C(C)C [Compound 5]			2.62	6.4	
CCN(C)C=Nc1cc(C)c(Oc2cc(Cl)cc(Br)c2)cc1C [Compound 6]			2.56	6.4	
Cc1cc(Oc2cc(Cl)cc(Br)c2)c(C)cc1N=CN(C)C(C)C [Compound 7]			2.7	6.8	
CCN(C)C=Nc1cc(C)c(Oc2cc(F)cc(Cl)c2)cc1C [Compound 8]			2.21	5.6	
Cc1cc(Oc2cc(F)cc(Cl)c2)c(C)cc1N=CN1CCCCC1 [Compound 9]			2.42	6.3	
Cc1cc(Oc2cc(F)cc(Cl)c2)c(C)cc1N=CN1CCCC1 [Compound 10]			2.26	5.6	
CCCN(C)C=Nc1cc(C)c(Oc2cc(F)cc(Cl)c2)cc1C [Compound 11]			2.39	6.1	
Cc1cc(Oc2cc(F)cc(Br)c2)c(C)cc1N=CN1CCCCC1 [Compound 12]			2.55	6.5	
CCN(C)C=Nc1cc(C)c(Oc2ccc3c(c2)CCCC3)cc1C [Compound 13]			2.37	5.7	
CCCN(C)C=Nc1cc(C)c(Oc2cc(F)cc(Br)c2)cc1C [Compound 14]			2.37	7.4	
CCN(C)C=Nc1cc(C)c(Oc2ccc(Cl)c(Br)c2)cc1C [Compound 15]			2.23	6.1	
Cc1cc(Oc2ccc(Cl)c(Br)c2)c(C)cc1N=CN1CCCCC1 [Compound 16]			2.66	6.9	
CCCN(C)C=Nc1cc(C)c(Oc2ccc(Cl)c(Br)c2)cc1C [Compound 17]			2.64	6.6	
Cc1cc(Oc2ccc(Cl)c(Br)c2)c(C)cc1N=CN1CCCC1 [Compound 18]			2.56	6.6	
CCN(C)C=Nc1cc(C)c(Oc2cc(F)cc(I)c2)cc1C [Compound 19]			2.4		

SMILES	logP [1]	log P (pH 2.3) (pH 2.3)	logP acidic	logP neutral (neutral)	logP (neutral, read-out: logP neutral)
CCCN(C)C=Nc1cc(C)c(Oc2cc(F)cc(I)c2)cc1C [Compound 20]			2.61	6.6	
Cc1cc(Oc2cc(F)cc(I)c2)c(C)cc1N=CN1CCCCC1 [Compound 21]			2.6	6.8	
Cc1cc(Oc2cc(F)cc(I)c2)c(C)cc1N=CN1CCCC1 [Compound 22]			2.46	6.6	
CCN(C)C=Nc1cc(C)c(Oc2ccc(F)c(Br)c2)cc1C [Compound 23]			2.29	5.7	
Cc1cc(Oc2ccc(Cl)c(I)c2)c(C)cc1N=CN(C)C(C)C [Compound 24]			2.4	6.2	
CCN(C)C=Nc1cc(C)c(Oc2ccc(Cl)c(I)c2)cc1C [Compound 25]			2.29		
Cc1cc(Oc2ccc(Cl)c(I)c2)c(C)cc1N=CN1CCCCC1 [Compound 26]			2.52		
CCN(C)C=Nc1cc(C)c(Oc2ccc(Br)c(I)c2)cc1C [Compound 27]			2.67	6.1	
CCCN(C)C=Nc1cc(C)c(Oc2cc(F)cc(Br)c2)cc1C [Compound 28]			2.91	6.9	
Cc1cc(Oc2cc(F)cc(Br)c2)c(C)cc1N=CN1CC(C)OC(C)C1 (stereo not shown) [Compound 29]			2.59	5.8	
CCN(C)C=Nc1cc(C)c(Oc2ccc(Cl)c(Cl)c2)cc1C [Compound 30, N-Ethyl-N-methyl-N′-[4-(3,4-dichlorophenoxy)-2,5-dimethylphenyl]formamidine]	2.48				6.07
Cc1cc(Oc2ccc(Br)c(F)c2)c(C)cc1N=CN1CCCCC1 [Compound 31]			2.39		
CCN(C)C=Nc1cc(C)c(Oc2ccc(Br)c(F)c2)cc1C [Compound 32]			2.2		
CCCN(C)C=Nc1cc(C)c(Oc2cc(F)cc(F)c2)cc1C [Compound 33]			2.04	5.54	
Cc1cc(Oc2cc(F)cc(F)c2)c(C)cc1N=CN1CCCCC1 [Compound 35]			2.03	5.79	
C=CCN(C)C=Nc1cc(C)c(Oc2ccc(Br)c(Br)c2)cc1C [Compound 37]			2.24	6.3	
CCCN(C)C=Nc1cc(C)c(Oc2ccc(Br)c(Br)c2)cc1C [Compound 38]			2.45	6.62	
Cc1cc(Oc2ccc(Br)c(Br)c2)c(C)cc1N=CN1CCCCC1 [Compound 39]			2.48	6.93	
Cc1cc(Oc2cc(F)cc(Br)c2)c(C)cc1N=CN(C)CC1CC1 [Compound 40]			2.25		
